Data set [1] relates to Staphylococcus aureus BAA-44 (multi-drug resistant MRSA). The data set is described as follows: MIC and MBC of Compound 10 in the absence of light (NCCLS-based broth dilution). It counts as cell-based. The following applies: S. aureus BAA-44, subculture on nutrient agar, further 24 hours. The source says:
The minimum inhibitory concentration (MIC) for an antimicrobial agent against a specific microorganism is defined as the minimum concentration of an antibacterial agent where no apparent visible growth of the organism is observed (FDA definition of Minimum Inhibitory Concentration). MIC's are typically determined using concentrations derived traditionally from serial twofold dilutions (National Committee for Clinical Laboratory Standards (NCCLS) Handbook M7-A5: “Methods for Dilution Antimicrobial Susceptibility Tests for Bacteria that Grow Aerobically; Approved Standard—5th Edition” Volume 20 Number 2. January 2000). The MIC for Compound 10 in the absence of light was investigated, using a protocol based on the MIC protocol produced by the NCCLS (National Committee for Clinical Laboratory Standards (NCCLS) Handbook M7-A5, supra).
Staphylococcus aureus BAA-44, a multi-drug resistant Methicillin Resistant Staphylococcus aureus (MRSA) strain obtained from the ATCC catalogue, was used in this study. The following concentrations of Compound 10 were investigated: 0.764; 0.382; 0.191; 0.0955; 0.0478; 0.0239, 0.0119, 0.00597, 0.00298, 0.00149, 0.00075 & 0.00037 μg/mL. Stock solutions were made up in distilled water and serial dilutions undertaken of this to produce the required concentrations immediately prior to use […]

In a further data set the test system is Enterococcus faecalis. Nature of the data set: MIC (IsoSensitest broth) and MBC (subculture onto Columbia blood agar), reference strains and clinical isolates. It is filed as cell-based. The following applies: dark, 24 hours. As for the experimental part:
(§1) The Minimum Inhibitory Concentrations (MIC's) for Compound 10, over a range of reference strains and clinical isolates, were determined using IsoSensitest® broth and Minimum Bactericidal concentrations (MBC's) determined by subculture onto Columbia blood agar.
(§2) • 1. A 5 mg/ml stock solution of Compound 10 was made up in water • 2. A series of dilutions were undertaken to produce a range of concentrations between 32-0.001 mg/L • 3. The test microorganisms were grown up overnight in IsoSensitest® broth • 4. The cultures were then diluted with fresh broth to a final concentration of 10^4 organisms/ml and placed on a shaker for 90 minutes at 37° C. • 5. 90 μl of the broth culture containing the microorganisms were transferred to each of 12 wells in a row in a microtitre tray and repeated in a control tray—four organisms per tray. • 6. 90 μL of the appropriate Compound 10 dilution was then added to each well containing organisms to give a final dilution series from 16 mg/L to 0.0005 mg/L • 7. The solutions were mixed well and incubated in the dark for 24 hours • 8. […] The MBC values were recorded after overnight incubation of the subcultures. • 10. Controls of uninoculated broth and broth plus inoculum were undertaken for each organism in each tray Results

The subject of a further data set is Enterococcus faecium. The data set is described as above. It is filed as cell-based. The following applies: dark, 24 hours. As for the experimental part: as §1, §2
A short description of data set [2]: Acute dermal toxicity test (OECD 402). It is filed as in vivo. As to conditions: 3.2 mM in a topical formulation. As for the experimental part: Compound 10 was tested at 3.2 mM in a topical formulation in a standard acute dermal toxicity test to determine if any clinical or histological toxicity for the compound could be detected.
The acute toxicity protocol was based on OECD Guidelines for the testing of chemicals/Section 4—Health Effects Test Number 402: Acute Dermal Toxicity.

Marks after values point to notes of the source that are not given here.

With `C[N+](C)(C)CCCOc1ccc(-c2c3nc(cc4ccc([nH]4)c(-c4ccc(OCCC[N+](C)(C)C)cc4)c4nc(cc5ccc2[nH]5)C=C4)C=C3)cc1.[Cl-].[Cl-]` [Compound 10, 5,15-bis-[4-(3-Trimethylammonio-propyloxy)-phenyl]-porphyrin dichloride], the MBC in data set [1] was 0.382* μg/mL. Moreover, the “Cpd 10 MIC” value with Enterococcus faecalis (strain E4 (clinical isolate)), with Enterococcus faecalis (strain E10 (clinical isolate)), with Enterococcus faecalis (strain E37 (clinical isolate)), in the data set on Enterococcus faecium (strain E5 (clinical isolate)), with Enterococcus faecium (strain E19 (clinical isolate)) and in the data set on Enterococcus faecium (strain E44 (clinical isolate)) was 0.5 µg/mL throughout. Moreover, in data set [2], the “Acute dermal toxicity (clinical and histological)” value is given as “does not result in any acute toxic effect”.

The record behind these values is US9326511B2, “Methods of inhibiting microbial biofilms” (priority 2008, dated 2016).
